{
  "source": "patent US9078446B2",
  "about": "“Use of N-(tetrazol-4-yl)- or N-(triazol-3-yl)arylcarboxamides or their salts for controlling unwanted plants in areas of transgenic crop plants being tolerant to HPPD inhibitor herbicides” (BAYER INTELLECTUAL PROPERTY GMBH, priority 2011, dated 2015)",
  "type_in_all_cases": "in vivo",
  "key": {"[1]": {"test_system": "cotton plants expressing FMP 27 and FMP 37", "assay": "Tolerance to HPPD inhibitors of cotton plants expressing tolerant HPPD enzymes", "conditions": "T1 cotton plants; one week after application", "source_text": "Genes coding for the selected HPPD were obtained from a member of the group of organisms consisting of Blepharisma japonicum and Kordia algicida and cloned into an appropriate binary vector allowing the integration of DNA into the cotton genome, under the control of the CaMV35S promoter. For the respective cloning procedures, see WO2011076882 (PCT/EP2010/070567), Example 11; for Blepharisma japonicum (FMP37) and WO2011076889 (PCT/EP2010/070575), Example 11 for Kordia algicida (FMP27).\nBetween the sequence corresponding to the promoter and the sequence coding for the HPPD a DNA sequence coding for a transit peptide to the chloroplast was inserted, in order to add at the N-terminal extremity of the protein a target signal to allow the localization of the HPPD protein into the plant chloroplast. Cotton transformation was achieved as described in Example 12 of WO2011076882 (PCT/EP2010/070567) for Blepharisma japonicum (FMP37) and WO2011076889 (PCT/EP2010/070575) for Kordia algicida (FMP27). Seeds from T0 events showing tolerance to tembotrione were harvested.\nT1 Cotton seeds were transferred to single pots and grown under standard cultivation conditions, see WO2011076882 (PCT/EP2010/070567) for Blepharisma japonicum (FMP37) and WO2011076889 (PCT/EP2010/070575) for Kordia algicida (FMP27).\nAt least 4 weeks later, plants will be sprayed with several N-(tetrazol-4-yl)- or N-(triazol-3-yl)arylcarboxamides as defined above."}, "[2]": {"test_system": "transgenic tobacco plants expressing Avena HPPD (AvHPPD)", "assay": "Symptoms due to herbicide application on transgenic tobacco plants (damage classes 0-3)", "conditions": "25 g Al/ha, one week after application", "source_text": "(§1) Genes coding for the selected HPPD were obtained from a member of the group of organisms consisting of Avena sativa, Pseudomonas fluorescens mutant G336W, Blepharisma japonicum and Kordia algicida and cloned into the binary vector pBin19 allowing the integration of DNA into the tobacco genome, under the control of the CaMV35S promoter. For the cloning procedures, see A2 above for Avena sativa, see B2 above for Pseudomonas fluorescens, mutant G336W, see PCT/EP2010/070567 (published as WO 2011/076882, Example 5; for Blepharisma japonicum (FMP37) and see PCT/EP2010/070575, Example 5 for Kordia algicida (FMP27). Between the sequence corresponding to the promoter and the sequence coding for the HPPD a DNA sequence coding for a transit peptide to the chloroplast was inserted, in order to add at the N-terminal extremity of the protein a target signal to allow the localization of the HPPD protein into the plant chloroplast.\n(§2) Seeds harvested from TO transformants will be put on standard soil for germination. Three weeks later plantlets (T1) will be transferred to single pots and grown under standard cultivation conditions (PCT/EP2010/070575, published as WO 2011/076889). Two weeks later, plants were sprayed with several N-(tetrazol-4-yl)- or N-(triazol-3-yl)arylcarboxamides as defined above.\n(§3) Tables F1 to F5: Evaluation of the Symptoms Observed Due to the Application of the Herbicides on Transgenic Tobacco Plants, Expressing the Mutant Pseudomonas fluorescens HPPD G336W, the Avena HPPD (AvHPPD), the HPPD from Kordia algicida FMP27 or the HPPD from Blepharisma japonicum (FMP37), Compared to Non-Tranformed Tobacco Plants (“Wt”).\n(§4) The herbicides (with “g Al/ha” meaning “g active ingredient/ha”) were applied on 8 to 10 plants originated from 1 to 3 independent transgenic events per transgene.\n(§5) The symptoms were evaluated and classified as following: • 3=Very strong damage • 2=Strong damage • 1=Light and transient damage • 0=No damage"}, "[3]": {"test_system": "transgenic tobacco plants expressing HPPD from Blepharisma japonicum (FMP37)", "assay": "Symptoms due to herbicide application on transgenic tobacco plants (damage classes 0-3)", "conditions": "25 g Al/ha, one week after application", "source_text": "as §1, §2, §3, §4, §5"}, "[4]": {"test_system": "transgenic tobacco plants expressing mutant Pseudomonas fluorescens HPPD G336W (PfHPPD-G336W)", "assay": "Symptoms due to herbicide application on transgenic tobacco plants (damage classes 0-3)", "conditions": "PfHPPD-G336W line 646; 25 g Al/ha; one week after application", "source_text": "as §1, §2, §3, §4, §5"}, "[5]": {"test_system": "transgenic tobacco plants expressing HPPD from Kordia algicida FMP27", "assay": "Symptoms due to herbicide application on transgenic tobacco plants (damage classes 0-3)", "conditions": "25 g Al/ha, one week after application", "source_text": "as §1, §2, §3, §4, §5"}},
  "data": [
    {"smiles": "Cc1c(C(=O)Nc2nnnn2C)ccc(C(F)(F)F)c1S(C)(=O)=O", "note": "[Compound 4-137]", "values": [
      {"measurement": "tolerance of transgenic plants compared to the wild-type cotton plants", "setting": "[1]", "value": "superior tolerance"},
      {"measurement": "number of plants with Damage 0 (No damage)", "setting": "[2]; AvHPPD line 656", "value": 3},
      {"measurement": "number of plants with Damage 1 (Light and transient damage)", "setting": "[2]; AvHPPD line 656", "value": 1},
      {"measurement": "number of plants with Damage 2 (Strong damage)", "setting": "[2]; AvHPPD line 656", "value": 1},
      {"measurement": "number of plants with Damage 3 (Very strong damage)", "setting": "[2]; AvHPPD line 656", "value": 5},
      {"measurement": "number of plants with Damage 0 (No damage)", "setting": "[2]; AvHPPD line 659", "value": 3},
      {"measurement": "number of plants with Damage 1 (Light and transient damage)", "setting": "[2]; AvHPPD line 659", "value": 3},
      {"measurement": "number of plants with Damage 2 (Strong damage)", "setting": "[2]; AvHPPD line 659", "value": 0},
      {"measurement": "number of plants with Damage 3 (Very strong damage)", "setting": "[2]; AvHPPD line 659", "value": 4},
      {"measurement": "number of plants with Damage 0 (No damage)", "setting": "[2]; AvHPPD line 699", "value": 1},
      {"measurement": "number of plants with Damage 1 (Light and transient damage)", "setting": "[2]; AvHPPD line 699", "value": 2},
      {"measurement": "number of plants with Damage 2 (Strong damage)", "setting": "[2]; AvHPPD line 699", "value": 0},
      {"measurement": "number of plants with Damage 3 (Very strong damage)", "setting": "[2]; AvHPPD line 699", "value": 7},
      {"measurement": "number of plants with Damage 0 (No damage)", "setting": "[3]; FMP37 line 749", "value": 8},
      {"measurement": "number of plants with Damage 1 (Light and transient damage)", "setting": "[3]; FMP37 line 749", "value": 2},
      {"measurement": "number of plants with Damage 2 (Strong damage)", "setting": "[3]; FMP37 line 749", "value": 0},
      {"measurement": "number of plants with Damage 3 (Very strong damage)", "setting": "[3]; FMP37 line 749", "value": 0},
      {"measurement": "number of plants with Damage 0 (No damage)", "setting": "[3]; FMP37 line 754", "value": 0},
      {"measurement": "number of plants with Damage 1 (Light and transient damage)", "setting": "[3]; FMP37 line 754", "value": 1},
      {"measurement": "number of plants with Damage 2 (Strong damage)", "setting": "[3]; FMP37 line 754", "value": 1},
      {"measurement": "number of plants with Damage 3 (Very strong damage)", "setting": "[3]; FMP37 line 754", "value": 8},
      {"measurement": "number of plants with Damage 0 (No damage)", "setting": "[3]; FMP37 line 795", "value": 2},
      {"measurement": "number of plants with Damage 1 (Light and transient damage)", "setting": "[3]; FMP37 line 795", "value": 0},
      {"measurement": "number of plants with Damage 2 (Strong damage)", "setting": "[3]; FMP37 line 795", "value": 2},
      {"measurement": "number of plants with Damage 3 (Very strong damage)", "setting": "[3]; FMP37 line 795", "value": 6},
      {"measurement": "number of plants with Damage 0 (No damage)", "setting": "[4]", "value": 5},
      {"measurement": "number of plants with Damage 1 (Light and transient damage)", "setting": "[4]", "value": 2},
      {"measurement": "number of plants with Damage 2 (Strong damage)", "setting": "[4]", "value": 0},
      {"measurement": "number of plants with Damage 3 (Very strong damage)", "setting": "[4]", "value": 3},
      {"measurement": "number of plants with Damage 0 (No damage)", "setting": "[5]; FMP27 line 733", "value": 4},
      {"measurement": "number of plants with Damage 1 (Light and transient damage)", "setting": "[5]; FMP27 line 733", "value": 0},
      {"measurement": "number of plants with Damage 2 (Strong damage)", "setting": "[5]; FMP27 line 733", "value": 1},
      {"measurement": "number of plants with Damage 3 (Very strong damage)", "setting": "[5]; FMP27 line 733", "value": 5},
      {"measurement": "number of plants with Damage 0 (No damage)", "setting": "[5]; FMP27 line 734", "value": 5},
      {"measurement": "number of plants with Damage 1 (Light and transient damage)", "setting": "[5]; FMP27 line 734", "value": 2},
      {"measurement": "number of plants with Damage 2 (Strong damage)", "setting": "[5]; FMP27 line 734", "value": 0},
      {"measurement": "number of plants with Damage 3 (Very strong damage)", "setting": "[5]; FMP27 line 734", "value": 3},
      {"measurement": "number of plants with Damage 0 (No damage)", "setting": "[5]; FMP27 line 735", "value": 3},
      {"measurement": "number of plants with Damage 1 (Light and transient damage)", "setting": "[5]; FMP27 line 735", "value": 0},
      {"measurement": "number of plants with Damage 2 (Strong damage)", "setting": "[5]; FMP27 line 735", "value": 4},
      {"measurement": "number of plants with Damage 3 (Very strong damage)", "setting": "[5]; FMP27 line 735", "value": 3}
    ]}
  ]
}
